Biological target: T1, M. tuberculosis DnaB intein (Mycobacterium tuberculosis, UniProt P9WMR3)
T1 sequence (P9WMR3 400-815 limits assumed): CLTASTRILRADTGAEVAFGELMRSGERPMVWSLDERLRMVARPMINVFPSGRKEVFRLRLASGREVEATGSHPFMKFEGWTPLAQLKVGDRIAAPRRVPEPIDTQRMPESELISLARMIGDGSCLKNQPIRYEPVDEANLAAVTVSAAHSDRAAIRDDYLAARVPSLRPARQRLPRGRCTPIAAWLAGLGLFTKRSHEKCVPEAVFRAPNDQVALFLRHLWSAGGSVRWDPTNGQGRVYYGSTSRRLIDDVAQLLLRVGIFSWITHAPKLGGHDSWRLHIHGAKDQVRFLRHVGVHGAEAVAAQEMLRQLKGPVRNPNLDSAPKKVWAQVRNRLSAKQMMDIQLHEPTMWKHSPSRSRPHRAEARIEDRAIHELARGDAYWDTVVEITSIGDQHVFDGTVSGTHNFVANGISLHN
Test: biochemical
Format: biochemical

| Compound | IC50 |
| --- | --- |
| CC1(C)CC(=O)C2(C(=O)C1)C(c1ccc(Cl)cc1Cl)C2(C#N)C#N (stereo not shown) [Compound 37] | < 5 µM |
| O=S(=O)(c1ccc(Br)cc1)c1snnc1-c1ccccc1 [Compound 6] | 13 µM |
| Cc1cc(Oc2c([N+](=O)[O-])cc(C(F)(F)F)cc2[N+](=O)[O-])ccc1Cl [Compound 64] | < 5 µM |
| O=C(c1nnsc1[S+]([O-])c1ccc(Cl)cc1)N1CCCCC1 (stereo not shown) [Compound 11] | 8 µM |
| [O-][S+](c1ccc(C(F)(F)F)cc1)c1cnn2c(Cl)nnc2c1 (stereo not shown) [Compound 45] | < 5 µM |
| COc1ccc(NC(=O)C(Cl)=C(Cl)[S+]([O-])Cc2ccc(C)cc2)cn1 (stereo not shown) [Compound 43] | < 5 µM |
| CCOC(=O)c1cc(C#N)c(Sc2nnc(SCC3CC3)s2)nc1C(F)(F)F [Compound 71] | < 5 µM |
| O=C(Oc1ccc(Cl)cc1)c1snnc1-c1ccccc1 [Compound 23] | < 5 µM |
| O=S(=O)(c1ccc(Cl)c(Cl)c1)c1snnc1-c1ccccc1 [Compound 7] | 6 µM |
| CCOC(=O)CSc1nc2c(c(-c3cccs3)c1C#N)CN(C)CC2 [Compound 56] | 10 µM |
| O=C(OCn1ncc(Cl)c(Cl)c1=O)c1cccc(C(F)(F)F)c1 [Compound 38] | < 5 µM |
| O=C(Nn1c(C2CCCCC2)nc2ccccc2c1=O)c1cc([N+](=O)[O-])cc([N+](=O)[O-])c1Cl [Compound 53] | < 5 µM |
| COc1ccc(NC(=O)C(Cl)=C(Cl)[S+]([O-])Cc2ccccc2)cn1 (stereo not shown) [Compound 9] | 7 µM |
| Cn1cc(C(=O)c2cccc(Cl)c2Cl)cc1C(=O)C(Cl)(Cl)Cl [Compound 40] | < 5 µM |
| N#CC1(C#N)C(c2ccccc2Cl)C1(C#N)C#N [Compound 21] | 15 µM |
| O=C(Sc1ccccc1)c1ccc2ncsc2c1 [Compound 68] | 9 µM |
| CS(=O)(=O)c1cc(C(F)(F)F)cc(S(C)(=O)=O)c1S(C)(=O)=O [Compound 3] | 17 µM |
| N#CC(N)=C(C#N)NCc1ccccc1Sc1ccc(Cl)cc1 [Compound 29] | < 5 µM |
| O=C(CCl)N1CCN2C(=O)c3ccccc3C12c1ccc(Cl)cc1 (stereo not shown) [Compound 13] | 8 µM |

| Compound | IC50 |
| --- | --- |
| O=S(=O)(c1cccc(C(F)(F)F)c1)c1snnc1-c1ccccc1 [Compound 35] | < 5 µM |
| N#CCSc1ccc(C#N)cc1 [Compound 24] | 12 µM |
| Cc1cc(S(=O)(=O)c2ccc(C(F)(F)F)cc2[N+](=O)[O-])c(Cl)cc1Cl [Compound 66] | < 5 µM |
| N#CC1(C#N)C(c2cccc(I)c2)C(C(N)=O)N2C=Cc3ccccc3C21 (stereo not shown) [Compound 17] | 15 µM |
| C=CCn1c(Sc2ncnc3c2sc(=S)n3CC=C)nnc1-c1ccccc1 [Compound 27] | < 5 µM |
| O=[N+]([O-])c1cc(C(F)(F)F)cc([N+](=O)[O-])c1Sc1nc2ccccc2[nH]1 [Compound 55] | 7 µM |
| COC(=O)c1sc(S(C)(=O)=O)c(C#N)c1-c1cc(C(C)(C)C)oc1C [Compound 33] | < 5 µM |
| Oc1cc2c(cc1C(c1ccc(C(F)(F)F)cc1)N1CCOCC1)OCO2 (stereo not shown) [Compound 69] | 37 µM |
| CCOC(=O)c1cc(C#N)c(Sc2nnc(SC)s2)nc1C(F)(F)F [Compound 72] | < 5 µM |
| O=C(c1c[nH]c(C(=O)C(Cl)(Cl)Cl)c1)c1cccc(Cl)c1Cl [Compound 59] | < 5 µM |
| Oc1cc2c(cc1C(c1ccc(Cl)c(Cl)c1)N1CCCC1)OCO2 (stereo not shown) [Compound 1] | 30 µM |
| O=C(Nc1ccccc1)c1nnsc1S(=O)(=O)c1ccc(Cl)cc1 [Compound 10] | 7 µM |
| COc1cccc(N(NC(=O)C(O)(c2cccc(C(F)(F)F)c2)c2cccc(C(F)(F)F)c2)C(=O)CCl)c1 [Compound 51] | < 5 µM |
| CCOC(=O)c1nnc(-c2ccccc2)nc1Sc1ccccc1C(=O)OC [Compound 41] | < 5 µM |
| Oc1ccc(Br)cc1CNc1cccc(C(F)(F)F)c1 [Compound 70] | 5 µM |
| CC1(C)CC(=O)c2c(S(C)(=O)=O)sc(C(=O)OCc3ccccc3)c2C1 [Compound 30] | < 5 µM |
| Oc1cc(OCc2ccc(C(F)(F)F)cc2)ccc1-c1cc[nH]n1 [Compound 44] | < 5 µM |
| CCCN(CCC)S(=O)(=O)c1ccc(C(=O)SCC(=O)OCC)cc1 [Compound 2] | 13 µM |

Reference: US7553832B2, “Methods and compositions for specific inhibition of protein splicing by small molecules” (Boston Biomedical Research Institute, priority 2005, dated 2009)
